Measured values published in US20120021077A1, “SYNERGISTIC HERBAL COMPOSITION FOR TREATMENT OF RHEUMATIC AND MUSCULO-SKELETAL DISORDERS (RMSDS)” (priority 2007, published 2012).
pIC50: −log10 of the molar value. Where two headings read alike, the source gives them in different places.

Tests used:
symptomatic OA knees = assay: Phase II 24-week comparator controlled trial of equivalence; format: in vivo, patients; parameters: W_DIFF, mean change between baseline and completion (Mean ± SD) / W_TOTAL, mean change between baseline and completion (Mean ± SD) / W_PAIN, mean change between baseline and completion (Mean ± SD) / W_STIFF, mean change between baseline and completion (Mean ± SD): scale not given here; conditions: 24 weeks
Source text: • Phase II, Randomized, double blind, comparator (Celecoxib & Glucosamine) controlled, multicentric trial of equivalence. • Study Duration-24 weeks • Sample size (statistically powered 80% with α<0.05)—440 patients with symptomatic OA knees • 4 arm-2 Ayurvedic Interventions (C, C+) Celecoxib & Glucosamine, parallel efficacy study • 110 patients in each arm • No rescue medication permitted

[1] = tested on: Acetic acid induced writhing in mice; assay: Acetic acid induced writhing (peripheral analgesic model); format: in vivo, albino mice
Protocol: (§1) Analgesic and anti-inflammatory activity studies for crude drug powders or extracts and formulations there off were carried out in known animal models. Central (formalin-induced model) and peripheral (acetic acid induced model) analgesic activities were studied in albino mice, while wistar rats were used for acute (carrageenan induced paw edema model) and sub-acute (turpentine oil-induced granuloma pouch model) anti-inflammatory activity. Suitable positive and negative controls were used for the studies. The data obtained is statistically significant (P value<0.05) and reproducible.
The total number of writhings following intra-peritoneal administration of 0.6% acetic acid, 10 ml/Kg body weight was recorded for 20 minutes, starting 10 minutes after injection. The animals were pre-treated with test samples (100, 200 and 400 mg/Kg p.o.) 30 minutes prior to above treatment, simultaneously using Aspirin (30 mg/kg p.o.) as a positive control.

[2] = tested on: human OA cartilage explants; assay: Glycosaminoglycan (GAG) release from human OA cartilage explants; format: cell-based; conditions: for Percent control GAG release: control = 100%
Protocol: Aqueous extracts of each capsule were freshly prepared as required. Contents of each capsule were solubilized in distilled water (10 mG/mL) by limited autoclaving. Each extract was filter sterilized prior to addition to cartilage explants at the required final concentration. This method of herbal extract preparation gave reproducible sterility and biological activity (Sumantran et al, 2007).
Patients (age 55-75 years) suffered from chronic osteoarthritis (OA) for 5-15 years prior to knee replacement surgery. Cartilage integrity was recorded by macroscopic and microscopic examination, using the Outerbridge scale. Only non-calcified, grade 1-2 articular cartilage from the lateral femoral condyles was used (Outerbridge 1961).
OA cartilage explants were cultured as described earlier (Sumantran et al, 2007). Briefly, explants were treated for 24 hours with/without sterile aqueous extracts of each capsule, and re-fed with growth media without herbal extract every two days for eight days. Conditioned media (CM) samples from each explant were collected prior to each re-feed. All CM samples per OA patient were thawed and assayed for GAG and NO levels simultaneously. Aggrecan assays were done after analysis of the GAG release data.
Total GAG levels in CM samples were measured by the dimethylmethylene blue assay using Chondroitin sulphate as a standard (Hoemann et al, 2002). NO levels in CM samples were estimated using the Griess reagent.
GAG content is expressed as microgram equivalents of Chondroitin sulphate. NO is expressed in micromoles/mG of explant/mL of CM. Units of Aggrecan are micrograms/mG of explant/mL of CM. Each marker is measured at each time point for each CM sample derived from each patient.
Levels of GAG, NO, or aggrecan levels in CM samples from explants at each time, point, per patient, treated with/without drug; were tested for statistical significance at the 95% confidence level using the Students 2 tailed t-test for paired samples. We calculated the effect of drug extracts in each CM sample, at each time point, per patient sample; using the ratio shown below:
Long-term versus Short-term activity: Long-term chondroprotective or anti-inflammatory activity is the ability of a drug to cause a statistically significant decrease in levels of GAG, aggrecan, or NO release by OA cartilage explants, relative to controls. This effect must be observed for at least 3 of the 4 time points during in vitro culture. Short-term activity is similar, but is detected at only 1 or 2 of the 4 time points tested.
In explant model of OA cartilage damage, GAG released by cartilage explants for 5 time points after a 24 hour drug treatment was measured. The effect on GAG release from cartilage explants of six OA patients treated with/without aqueous extracts of formulations C and C+G (100 microg/mLeach) was studied. […] Glucosamine and celecoxib each caused a statistically significant, 25% decrease in GAG release at time point 4, compared to controls.

[3] = tested on: Carrageenan induced rat paw edema; assay: Carrageenan induced rat paw edema (acute anti-inflammatory); format: in vivo, wistar rats; conditions: anti-inflammatory studies, model not specified
Protocol: as §1
Various doses of test sample (100, 200 and 400 mg/Kg p.o.) and standard Indomethacin (10 mg/kg p.o.) were administered to different groups of rats. Acute inflammation was induced half an hour after the above treatment by injection of 0.1 ml of freshly prepared 1% (in water) suspension of Carrageenan sodium in sub-planter region of rat right hind paw. Paw volume was measured by plethysmographic method initially and then at 1, 2, 3, 4, 24, 48 and 72 hrs after carrageenan injection.

[4] = tested on: symptomatic knee osteoarthritis; assay: 16-week randomized double blind placebo and comparator controlled trial (NMITLI OA stage I/2); format: in vivo, patients
Protocol: NMITLI OA stage I/2: The said formulation was evaluated in a randomized double blind placebo controlled, multicentric 16 week clinical trial in 245 patients with symptomatic knee osteoarthritis. This was This was a 7 arm exploratory study, aimed to evaluate the efficacy and safety of 5 multiplant formulations using Shunthi-Guduchi as a common platform formulation in all. Glucosamine was the positive comparator.
Glucosamine was the positive comparator in this study.
The clinical trials are conducted on the following basis: • Randomized, Double Blind, parallel efficacy, Placebo & Comparator controlled study • 245 patients in a 7 arm (5 ayurvedic arms coded as A-E, placebo-1, Glucosamine-1) study of 16 weeks duration. • 35 patients in each arm • Monitored pain rescue medication (oral paracetamol) permitted on SOS basis • Intent to treat analysis with last observation carried forward • All arms well-matched at baseline for demographics and efficacy.

OA cartilage explants = assay: Nitric oxide (NO) release by OA cartilage explants; format: cell-based, human
[5] = tested on: human OA cartilage explants; assay: Aggrecan release from human OA cartilage explants; format: cell-based
Source text: The kit uses a mixture of monoclonal antibodies to different epitopes of aggrecan, thereby ensuring sensitive and rapid estimation of aggrecan.

[6] = tested on: active Rheumatoid arthritis (RA); assay: NMITLI RA stage I/1, 24-week study; format: in vivo, patients; conditions: week 24
Source text: NMITLI RA STAGE I/1: A randomized double blind comparator controlled parallel efficacy multicentric 24-week study in patients with active Rheumatoid arthritis (RA). In this study, formulation B and a proprietary ayurvedic formulation were compared to Hydroxychloroquine (HCQS), which is a popular DMARD (Disease Modifying Anti Rheumatoid Drug) in modern medicine rheumatology. As a complex painful inflammatory polyarticular disease, several efficacy variables, both clinical and laboratory were used to evaluate efficacy—Joint Counts for pain/tenderness and swelling, pain VAS, Patients Global assessments by the patient and physician, Health Assessment Questionnaire (a validated instrument for functional ability for Indian use), ESR, CRP and cytokines markers.
At baseline, all the groups were matched well in several demographic and efficacy measures. […] The overall safety of Ayurvedic formulations was better than HCQS.

[7] = tested on: arachidonic acid (AA) induced platelet activation in human whole blood; conditions: read-out: anti-platelet activity IC(50); cited from earlier work
mouse bone marrow = conditions: test drugs 2000 mg/kg oral; cyclophosphamide 75 mg/kg i.p.
Protocol: Assessment of genotoxicity using mouse bone marrow micronucleus test and Salmonella reverse mutation test was carried out according to OECD guidelines No. 474 and 471 respectively.
Genotoxicity study was carried out using mammalian bone marrow micronucleus test with the limit test at a single dose level of 2000 mg/kg body weight. The test drug was suspended in 1% CMC (carboxy methyl cellulose) and administered orally to the experimental animals. Control animals received 1% CMC alone. […] Treatment was given for two consecutive days at 0 h and 24 h. […] All the mice were sacrificed at 6th hr. after the last treatment (30th hr. after first dose) and femur bones were excised and bone marrow contents were flushed with fetal calf serum. Bone marrow cells were centrifuged spread as a smear on glass slide and stained using Giemsa stain and May-Grunwald stain. […] Minimum 2000 PCEs were scored from each animal. All the slides were coded prior to scoring and decoded after completion of scoring.

[8] = time point 3, controls set at 100%
[9] = time point 4, controls set at 100%

## Cc1ccc(-c2cc(C(F)(F)F)nn2-c2ccc(S(N)(=O)=O)cc2)cc1 [Celecoxib]
Symptomatic OA knees
  PainVAS, mean change between baseline and completion (Mean ± SD): −1.82 ± 1.95
  W_DIFF, mean change between baseline and completion (Mean ± SD): −6.93 ± 9.88
  W_PAIN, mean change between baseline and completion (Mean ± SD): −1.89 ± 3.01
  W_STIFF, mean change between baseline and completion (Mean ± SD): −0.34 ± 1.91
  W_TOTAL, mean change between baseline and completion (Mean ± SD): −9.17 ± 13.05
[1]
  dose with significant peripheral analgesic activity: 400 mg/kg
[2]; time point 1, 100 microg/mL
  Percent control GAG release: 90.24 ± 25.71%
[2]; time point 2, 100 microg/mL
  Percent control GAG release: 84.87 ± 28.54%
[2]; time point 3, 100 microg/mL
  Percent control GAG release: 87.83 ± 28.99%
[2]; time point 4
  decrease in GAG release compared to controls: 25%
[2]; time point 4, 100 microg/mL
  Percent control GAG release: 74.81 ± 31.83%
[2]; time point 5, 100 microg/mL
  Percent control GAG release: 89.42 ± 31.98%
[3]
  minimum dose with significant anti-inflammatory activity: 200 mg/kg

## N[C@H]1C(O)O[C@H](CO)[C@@H](O)[C@@H]1O (stereo partly drawn) [Glucosamine]
[4]; all visits
  Daily consumption Paracetamol, Mean, AVR_TOTAL: 1.7950
[4]; baseline
  PATG (1-5 grades), baseline mean: 3.52 grades
  PainVAS (0-100 mm), baseline mean: 64.8 mm
  WOMAC Pain (0-20 score), baseline mean: 8.0 score
[4]; over 16 weeks
  PATG, mean of percent change from baseline: 15.4%
  PainVAS, mean of percent change from baseline: 21%
  WOMAC Pain, mean of percent change from baseline: 14.2%
[4]; visit 3
  Daily consumption Paracetamol, Mean, AVR_PAR3: 2.0110
[4]; visit 4
  Daily consumption Paracetamol, Mean, AVR_PAR4: 1.9038
[4]; visit 5
  Daily consumption Paracetamol, Mean, AVR_PAR5: 1.9863
[4]; visit 6
  Daily consumption Paracetamol, Mean, AVR_PAR6: 1.8846
[4]; visit 7
  Daily consumption Paracetamol, Mean, AVR_PAR7: 1.3516
Symptomatic OA knees
  PainVAS, mean change between baseline and completion (Mean ± SD): −2.45 ± 2.23
  W_DIFF, mean change between baseline and completion (Mean ± SD): −8.12 ± 10.89
  W_PAIN, mean change between baseline and completion (Mean ± SD): −2.72 ± 3.26
  W_STIFF, mean change between baseline and completion (Mean ± SD): −0.49 ± 1.61
  W_TOTAL, mean change between baseline and completion (Mean ± SD): −11.33 ± 13.75
[1]
  dose with significant peripheral analgesic activity: 400 mg/kg
[2]; long term = at least 3 of 4 time points, short term = 1 or 2
  Glycosaminoglyan (GAG) release, decrease: Short term
[2]; time point 1, 100 microg/mL
  Percent control GAG release: 118.96 ± 34.74%
[2]; time point 2, 100 microg/mL
  Percent control GAG release: 91.70 ± 16.55%
[2]; time point 3
  mean decrease of GAGs release relative to control explants: 26%
[2]; time point 3, 100 microg/mL
  Percent control GAG release: 86.52 ± 19.36%
[2]; time point 3, both markers
  mean decrease in levels of GAG and aggrecan release relative to controls: 25-35%
[2]; [8]
  levels of GAG released compared to controls (FIG. 1): 73.72±9.69%
[2]; time point 4
  decrease in GAG release compared to controls: 25%
  mean decrease of GAGs release relative to control explants: 20%
[2]; time point 4, 100 microg/mL
  Percent control GAG release: 76.01 ± 19.96%
[2]; [9]
  levels of GAG released compared to controls (FIG. 2): 81.38±14.35%
[2]; time point 5, 100 microg/mL
  Percent control GAG release: 87.15 ± 20.83%
OA cartilage explants
  Nitric oxide (NO) release, decrease: No significant
OA cartilage explants; listed as gulosamine
  Nitric oxide (NO) release, decrease: did not significantly decrease
[3]
  minimum dose with significant anti-inflammatory activity: devoid of any anti-inflammatory activity
[5]
  Aggrecan (AGG) release, decrease: Significant
[5]; time point 3
  mean decrease of Aggrecan release relative to control explants: 34%
[5]; [8]
  levels of aggrecan released compared to controls (FIG. 1): 66.13±21.81%
[5]; time point 4, 5 patients
  Aggrecan release by cartilage explants: not significantly decreased
[5]; [9]
  levels of aggrecan released compared to controls (FIG. 2): 86.07±21.71%

## CCN(CCO)CCCC(C)Nc1ccnc2cc(Cl)ccc12 (stereo not drawn) [HCQS, Hydroxychloroquine]
[6]
  efficacy in RA, individual group analysis: several significant improvements

## CC(=O)Oc1ccccc1C(=O)O [aspirin]
[7]
  pIC50: 4.70

## O=P1(N(CCCl)CCCl)NCCCO1 (stereo not drawn) [cyclophosphamide]
Mouse bone marrow
  micronucleus induction / mutagenic effect: significant increase in percent micronuclei: PCE ratio
